The values that follow come from US20160015725A1, “METHODS OF CONTROLLING TUMOR BIOENERGETICS NETWORKS” (THE WISTAR INSTITUTE OF ANATOMY AND BIOLOGY, priority 2012, published 2016).

The subject of one experiment is TRAMP mice prostate. The experiment is described as follows: Immunohistochemistry of TRAMP prostate tissues. Type of experiment: in vivo, mouse. The note with it: PIN lesions. On the procedure:
The preclinical studies to test the efficacy and safety of Gamitrinib in a genetic mouse model of prostate cancer in immunocompetent TRAMP (Transgenic Adenocarcinoma of the Mouse Prostate) mice have been described (Kang et al., 2011). In this model, Gamitrinib was given systemically (5 mg/kg i.p. with the schedule 3 d on/2 d off) to TRAMP mice starting at 21.9 weeks of age (group 1) or 14.7 weeks of age (group 2), for 3 weeks or 5 weeks, respectively. In the control group, TRAMP mice of 24 weeks of age received vehicle. At the end of the experiment, animals in the vehicle or Gamitrinib groups were sacrificed and analyzed for localized and metastatic prostate cancer of adenocarcinoma or neuroendocrine histologic type (Kang et al., 2011).
For analysis of patient-derived or TRAMP tissues, slides were microwaved for 35 min in EDTA solution. Sections (4-μm thick) were cut from all TMA blocks and TRAMP-derived prostatic tumors and stained with a rabbit polyclonal antibody to Grp78 (1:1000) for 30 min at 22° C. IHC was performed using a Ventana BenchMark Ultra autostainer (Ventana Medical Systems), with the ultraView Universal DAB Detection Kit (Ventana) for detection of antibody reactivity. All slides were counterstained with hematoxylin Immunoreactivity for Grp78 was evaluated by two pathologists (S.F. and S.B.) and independently scored for cytoplasmic localization. When discrepancies in scoring occurred, a consensus interpretation was reached after re-examination. The percentage of immunoreactive epithelial cells was determined and assigned to one of the following four categories: 0, (0%); 1, (1%-9%); 2, (10%-49%) and 3, (50%-100%). The intensity of immunostaining was scored as absent (0), mild (1), moderate (2) or strong (3). In the case of TMA, the two parameters were multiplied to generate a weighted score for each case that ranged from 0 to 9. Cases with weighted score 0 were defined as negative. Among AdCa samples in the series under investigation, 17 cases were negative for Grp78 expression, whereas 0 cases of SCC were Grp78-negative. […]

Experiment [1] deals with LN229 cells. The experiment is described as follows: Apoptosis by annexin V / PI flow cytometry. The settings on record: HK-II silenced cells vs control transfectants. Type of experiment: cell-based, human. On the procedure: (§1) Various cell types were seeded in triplicate onto 96-well plates at 4×10^3 cells/well, treated with vehicle, Gamitrinib or 17-AAG (0-20 μM) for 12 h, and analyzed for changes in metabolic activity by an MTT assay. For determination of apoptosis, LN229 cells ([…]) were labeled for annexin V and propidium iodide (PI) (BD Biosciences), and analyzed by multiparametric flow cytometry (BD).
For orientation: Flow cytometry measures light scatter and fluorescence of single cells or particles in a stream.

Experiment [2] deals with LN229 cells. The experiment in a line: Glucose utilization. The format is cell-based, human. The note with it: tumor cells. On the procedure:
Glucose concentrations in cell culture media were determined using a Glucose kit (Sigma-Aldrich). Briefly, 2×10^6 cells were seeded in 10 cm2 tissue culture dishes for 48 h, mixed with DMEM in the presence of Gamitrinib or 17-AAG (0-20 μM) for additional 4 h, and 200 μl aliquots of culture medium were incubated with 1 ml assay mixture, containing 1.5 mM NAD, 1 mM ATP, 1.0 U/ml Hexokinase, and 1.0 U/ml G6PDH. The glucose concentration under the various conditions was determined by measuring the amount of reduced NAD to NADH by G6PDH, and quantified spectrophotometrically at 340 nm wavelength. Extracellular lactate was measured by a colorometric assay kit (Abcam). Culture media from LN229 cells was replaced with DMEM containing vehicle (DMSO) or Gamitrinib (5 μM) for 5 h. Changes in lactate concentrations were measured by analysis of lactate-dependent conversion of NADP to NADPH in the presence of excess lactate dehydrogenase (LDH), and quantified by absorbance at 450 nm. All assays were performed at 25° C. under conditions of linear lactate-limited NADPH formation.

For the next experiment, the system named is tumor cells. The experiment is described as follows: Mitochondrial permeability transition. Type of experiment: cell-based, human. The settings on record: non-cytotoxic concentrations. On the procedure: (a) FIG. 18a is a bar graph showing percent viability of aliquots of the human tumor cell lines PC3, LNCaP, LN229, A549, or MCF-7 incubated with the indicated increasing concentrations of Gamitrinib for 5 hr and analyzed for changes in cell viability by direct cell counting. Mean±SD (n=2). (b) FIG. 18b are two parameter histogram dot plots of human glioblastoma LN229 cells left untreated (None) or incubated with 5 μM 17-AAG or Gamitrinib (Gam) for 5 hr and analyzed for changes in mitochondrial membrane potential by JC-1 staining and multiparametric flow cytometry. The mitochondrial uncoupler carbonyl cyanide 3-chlorophenylhydrazone (CCCP) was used as a control. The percentage of cells in each quadrant is indicated. FL1, green fluorescence; FL2, red fluorescence.

The test system of experiment [3] is BRAF V600E melanoma cells. The experiment is described as follows: Melanoma cell viability by MTT, BRAF V600E. Type of experiment: cell-based, human. On the procedure:
as §1

Consider `CO[C@H]1/C=C\C=C(/C)C(=O)NC2=CC(=O)C(NCCCCCC[P+](c3ccccc3)(c3ccccc3)c3ccccc3)=C(C[C@@H](C)C[C@H](OC)[C@H](O)[C@@H](C)/C=C(\C)[C@@H]1OC(N)=O)C2=O` [Gamitrinib], for which, in the experiment with TRAMP mice prostate, the GRP78 expression entry was “upregulation of GRP78”; the “autophagy, LC3 conversion” value was “induction of autophagy, i.e. LC3 conversion”; the “phosphorylated AMPK expression” value is “increased expression of phosphorylated AMPK”. In the experiment with LN229 cells [1], the “Annexin V labeling” value is given as “increased Annexin V labeling”. Besides, the glucose utilization result with LN229 cells [2] is recorded as “reduced glucose utilization”. In addition, the mitochondrial permeability transition result in the experiment with tumor cells was “do not trigger mitochondrial permeability transition”. In addition, the IC50 (commonly the concentration needed to halve the response being measured) in experiment [3] came to 1950 ± 210 nM.
